# Measured values as given in US9499550B2 (BRISTOL-MYERS SQUIBB COMPANY, priority 2012, dated 2016).
# Like-named read-outs stand apart in the source and are kept apart here.
# Columns and labels:
# [1] = system: HCV genotype 1a (H77 strain) replicon in HUH-7 cells; experiment: HCV replicon luciferase reporter assay, genotype 1a; type: cell-based; conditions: Hepatitis C virus, Huh-7, 72 h, HCV genotype 1a replicon luciferase, 3 days incubation
# Summary of the method: (§1)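 Replicon inhibition for both genotypes was measured as Renilla luciferase signal (EnduRen, 7.5 μM final, 2 h) after 3-day, 37° C exposure of replicon-bearing HUH-7 cells in 4% FCS DMEM, 0.5% DMSO. The 1b construct carries S1179I; the 1a H77 construct carries P1496L and S2204I. Twenty-point, 3-fold dilutions were fitted four-parametrically for EC50, and CC50 was taken from multiplexed Cell Titer-Blue.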
# [2] = system: HCV genotype 1b (Con1) replicon in HUH-7 cells; experiment: HCV replicon luciferase reporter assay, genotype 1b; type: cell-based; conditions: Hepatitis C virus, Huh-7, 72 h, HCV genotype 1b replicon luciferase, 3 days incubation
# Summary of the method: as §1
Structure (SMILES),"EC50 ([1]; read-out: LE_1a (EC50, range)) [µM]","EC50 ([2]; read-out: LE_1b (EC50, range)) [µM]","EC50 ([1]; GETYPE1A, read-out: LE_1a (EC50, range)) [µM]","EC50 ([2]; GETYPE1B, read-out: LE_1b (EC50, range)) [µM]",EC50 ([1]; read-out: LE_1a (EC50)) [µM],EC50 ([2]; read-out: LE_1b (EC50)) [µM]
"CCn1nc(O[C@@H]2C[C@H]3C(=O)N[C@]4(C(=O)NS(=O)(=O)C5CC5)C[C@H]4/C=C\CC[C@@H](C)C[C@@H](C)[C@H](NC(=O)C(=O)N(C)C)C(=O)N3C2)c2ccccc2c1=O [Compound 5076, N1-((2R,6S,7R,9R,13aS,14aR,16aS,Z)-14a-((cyclopropylsulfonyl)carbamoyl)-2-((3-ethyl-4-oxo-3,4-dihydrophthalazin-1-yl)oxy)-7,9-dimethyl-5,16-dioxo-1,2,3,5,6,7,8,9,10,11,13a,14,14a,15,16,16a-hexadecahydrocyclopropa[e]pyrrolo[1,2-a][1,4]diazacyclopentadecin-6-yl)-N2,N2-dimethyloxalamide]",> 0.0874,> 0.0874,,,,
CCn1nc(O[C@@H]2C[C@H]3C(=O)N[C@]4(C(=O)NS(=O)(=O)C5(CF)CC5)C[C@H]4/C=C\CC[C@H](C)C[C@@H](C)[C@H](NC(=O)OC(C)(C)C(F)(F)F)C(=O)N3C2)c2ccccc2c1=O [Compound 5077],,,0.00482 to 0.103,0.00482 to 0.103,,
"CCCOc1cnc(O[C@@H]2C[C@H]3C(=O)N[C@]4(C(=O)NS(=O)(=O)C5(C)CC5)C[C@H]4/C=C\CC[C@H](C)C[C@@H](C)[C@H](NC(=O)OC(C)(C)C)C(=O)N3C2)c2ccccc12 [Compound 5078, tert-butyl ((2R,6S,7R,9S,13aS,14aR,16aS,Z)-7,9-dimethyl-14a-(((1-methylcyclopropyl)sulfonyl)carbamoyl)-5,16-dioxo-2-((4-propoxyisoquinolin-1-yl)oxy)-1,2,3,5,6,7,8,9,10,11,13a,14,14a,15,16,16a-hexadecahydrocyclopropa[e]pyrrolo[1,2-a][1,4]diazacyclopentadecin-6-yl)carbamate]",0.00482 to 0.103,0.00482 to 0.103,,,0.0289,0.00873
"CCCOc1cnc(O[C@@H]2C[C@H]3C(=O)N[C@]4(C(=O)NS(=O)(=O)C5(C)CC5)C[C@H]4/C=C\CC[C@@H](C)C[C@@H](C)[C@H](NC(=O)OC(C)(C)C)C(=O)N3C2)c2ccccc12 [Compound 5079, tert-butyl ((2R,6S,7R,9R,13aS,14aR,16aS,Z)-7,9-dimethyl-14a-(((1-methylcyclopropyl)sulfonyl)carbamoyl)-5,16-dioxo-2-((4-propoxyisoquinolin-1-yl)oxy)-1,2,3,5,6,7,8,9,10,11,13a,14,14a,15,16,16a-hexadecahydrocyclopropa[e]pyrrolo[1,2-a][1,4]diazacyclopentadecin-6-yl)carbamate]",< 0.00546,< 0.00546,,,,
"CCCOc1cnc(O[C@@H]2C[C@H]3C(=O)N[C@]4(C(=O)NS(=O)(=O)C5(C)CC5)C[C@H]4/C=C\CC[C@H](C)C[C@@H](C)[C@H](NC(=O)O[C@@H]4C[C@@H]5C[C@@H]5C4)C(=O)N3C2)c2ccccc12 [Compound 5080, (1R,3r,5S)-bicyclo[3.1.0]hexan-3-yl((2R,6S,7R,9S,13aS,14aR,16aS,Z)-7,9-dimethyl-14a-(((1-methylcyclopropyl)sulfonyl)carbamoyl)-5,16-dioxo-2-((4-propoxyisoquinolin-1-yl)oxy)-1,2,3,5,6,7,8,9,10,11,13a,14,14a,15,16,16a-hexadecahydrocyclopropa[e]pyrrolo[1,2-a][1,4]diazacyclopentadecin-6-yl)carbamate]",> 0.0874,0.00482 to 0.103,,,,
"CCCOc1cnc(O[C@@H]2C[C@H]3C(=O)N[C@]4(C(=O)NS(=O)(=O)C5(C)CC5)C[C@H]4/C=C\CC[C@@H](C)C[C@@H](C)[C@H](NC(=O)O[C@@H]4C[C@@H]5C[C@@H]5C4)C(=O)N3C2)c2ccccc12 [Compound 5081, (1R,3r,5S)-bicyclo[3.1.0]hexan-3-yl((2R,6S,7R,9R,13aS,14aR,16aS,Z)-7,9-dimethyl-14a-(((1-methylcyclopropyl)sulfonyl)carbamoyl)-5,16-dioxo-2-((4-propoxyisoquinolin-1-yl)oxy)-1,2,3,5,6,7,8,9,10,11,13a,14,14a,15,16,16a-hexadecahydrocyclopropa[e]pyrrolo[1,2-a][1,4]diazacyclopentadecin-6-yl)carbamate]",0.00482 to 0.103,< 0.00546,,,,
"CCCOc1cnc(O[C@@H]2C[C@H]3C(=O)N[C@]4(C(=O)NS(=O)(=O)C5(C)CC5)C[C@H]4/C=C\CC[C@H](C)C[C@@H](C)[C@H](NC(=O)OCC4(C)CC4)C(=O)N3C2)c2ccccc12 [Compound 5082, (1-methylcyclopropyl)methyl ((2R,6S,7R,9S,13aS,14aR,16aS,Z)-7,9-dimethyl-14a-(((1-methylcyclopropyl)sulfonyl)carbamoyl)-5,16-dioxo-2-((4-propoxyisoquinolin-1-yl)oxy)-1,2,3,5,6,7,8,9,10,11,13a,14,14a,15,16,16a-hexadecahydrocyclopropa[e]pyrrolo[1,2-a][1,4]diazacyclopentadecin-6-yl)carbamate]",> 0.0874,0.00482 to 0.103,,,0.198,0.0455
"CCCOc1cnc(O[C@@H]2C[C@H]3C(=O)N[C@]4(C(=O)NS(=O)(=O)C5(C)CC5)C[C@H]4/C=C\CC[C@@H](C)C[C@@H](C)[C@H](NC(=O)OCC4(C)CC4)C(=O)N3C2)c2ccccc12 [Compound 5083, (1-methylcyclopropyl)methyl ((2R,6S,7R,9R,13aS,14aR,16aS,Z)-7,9-dimethyl-14a-(((1-methylcyclopropyl)sulfonyl)carbamoyl)-5,16-dioxo-2-((4-propoxyisoquinolin-1-yl)oxy)-1,2,3,5,6,7,8,9,10,11,13a,14,14a,15,16,16a-hexadecahydrocyclopropa[e]pyrrolo[1,2-a][1,4]diazacyclopentadecin-6-yl)carbamate]",< 0.00546,< 0.00546,,,,
"CCCOc1cnc(O[C@@H]2C[C@H]3C(=O)N[C@]4(C(=O)NS(=O)(=O)C5(C)CC5)C[C@H]4/C=C\CC[C@H](C)C[C@@H](C)[C@H](NC(=O)O[C@H](C)C(F)(F)F)C(=O)N3C2)c2ccccc12 [Compound 5084, (R)-1,1,1-trifluoropropan-2-yl ((2R,6S,7R,9S,13aS,14aR,16aS,Z)-7,9-dimethyl-14a-(((1-methylcyclopropyl)sulfonyl)carbamoyl)-5,16-dioxo-2-((4-propoxyisoquinolin-1-yl)oxy)-1,2,3,5,6,7,8,9,10,11,13a,14,14a,15,16,16a-hexadecahydrocyclopropa[e]pyrrolo[1,2-a][1,4]diazacyclopentadecin-6-yl)carbamate]",> 0.0874,> 0.0874,,,0.52,0.131
"CCCOc1cnc(O[C@@H]2C[C@H]3C(=O)N[C@]4(C(=O)NS(=O)(=O)C5(C)CC5)C[C@H]4/C=C\CC[C@@H](C)C[C@@H](C)[C@H](NC(=O)O[C@H](C)C(F)(F)F)C(=O)N3C2)c2ccccc12 [Compound 5085, (R)-1,1,1-trifluoropropan-2-yl ((2R,6S,7R,9R,13aS,14aR,16aS,Z)-7,9-dimethyl-14a-(((1-methylcyclopropyl)sulfonyl)carbamoyl)-5,16-dioxo-2-((4-propoxyisoquinolin-1-yl)oxy)-1,2,3,5,6,7,8,9,10,11,13a,14,14a,15,16,16a-hexadecahydrocyclopropa[e]pyrrolo[1,2-a][1,4]diazacyclopentadecin-6-yl)carbamate]",0.00482 to 0.103,0.00482 to 0.103,,,,
"CCCOc1cnc(O[C@@H]2C[C@H]3C(=O)N[C@]4(C(=O)NS(=O)(=O)C5(C)CC5)C[C@H]4/C=C\CC[C@H](C)C[C@@H](C)[C@H](NC(=O)NC(C)(C)C(F)(F)F)C(=O)N3C2)c2ccccc12 [Compound 5086, (2R,6S,7R,9S,13aS,14aR,16aS,Z)-7,9-dimethyl-N-((1-methylcyclopropyl)sulfonyl)-5,16-dioxo-2-((4-propoxyisoquinolin-1-yl)oxy)-6-(3-(1,1,1-trifluoro-2-methylpropan-2-yl)ureido)-1,2,3,5,6,7,8,9,10,11,13a,14,14a,15,16,16a-hexadecahydrocyclopropa[e]pyrrolo[1,2-a][1,4]diazacyclopentadecine-14a-carboxamide]",> 0.0874,> 0.0874,,,0.411,0.155
"CCCOc1cnc(O[C@@H]2C[C@H]3C(=O)N[C@]4(C(=O)NS(=O)(=O)C5(C)CC5)C[C@H]4/C=C\CC[C@@H](C)C[C@@H](C)[C@H](NC(=O)NC(C)(C)C(F)(F)F)C(=O)N3C2)c2ccccc12 [Compound 5087, (2R,6S,7R,9R,13aS,14aR,16aS,Z)-7,9-dimethyl-N-((1-methylcyclopropyl)sulfonyl)-5,16-dioxo-2-((4-propoxyisoquinolin-1-yl)oxy)-6-(3-(1,1,1-trifluoro-2-methylpropan-2-yl)ureido)-1,2,3,5,6,7,8,9,10,11,13a,14,14a,15,16,16a-hexadecahydrocyclopropa[e]pyrrolo[1,2-a][1,4]diazacyclopentadecine-14a-carboxamide]",< 0.00546,< 0.00546,,,,
"CCCOc1cnc(O[C@@H]2C[C@H]3C(=O)N[C@]4(C(=O)NS(=O)(=O)C5CC5)C[C@H]4/C=C\CC[C@H](C)C[C@@H](C)[C@H](NC(=O)OC(C)(C)C)C(=O)N3C2)c2ccccc12 [Compound 5088, tert-butyl ((2R,6S,7R,9S,13aS,14aR,16aS,Z)-14a-((cyclopropylsulfonyl)carbamoyl)-7,9-dimethyl-5,16-dioxo-2-((4-propoxyisoquinolin-1-yl)oxy)-1,2,3,5,6,7,8,9,10,11,13a,14,14a,15,16,16a-hexadecahydrocyclopropa[e]pyrrolo[1,2-a][1,4]diazacyclopentadecin-6-yl)carbamate]",> 0.0874,0.00482 to 0.103,,,0.103,0.0203
